{"source": "patent US12065436B2", "about": "“Cardiac sarcomere inhibitors” (Cytokinetics, Inc., priority 2018, dated 2024)", "key": {"[1]": {"test_system": "R403Q mice (alpha cardiac myosin heavy chain mutation, familial hypertrophic cardiomyopathy model)", "assay": "Longitudinal echocardiography in R403Q mouse model of HCM", "format": "in vivo", "conditions": "compound formulated in chow for 24 weeks, echocardiography every 4 weeks, versus untreated R403Q mice", "protocol": "Assessment over time of in vivo cardiac function by echocardiography was performed using a previously reported mouse model of familial hypertrophic cardiomyopathy, which was generated by an arginine to glutamine mutation at residue 403 (R403Q) of the alpha cardiac myosin heavy chain (MHC) gene (Geisterfer-Lowrance et al., Science. 1996 May 3; 272(5262):731-4). Cardiac dysfunction, fibrosis, and measures of cardiac hypertrophy (including ventricular wall thickness) increase with age in this mouse model (Geisterfer-Lowrance, supra; Jiang et al., Science. 2013, 342(6154):111-4).\nR403Q mice received vehicle or Compound 142 formulated in chow for 24 weeks. Longitudinal echocardiography measurements were performed every 4 weeks. Echocardiography measurements were taken with mice under isoflurane (1-3%) anesthesia. 2-D M-mode images of the left ventricle were acquired in short-axis view. In vivo fractional shortening was determined by M-mode image analysis with the following calculation: ((End diastolic diameter−end systolic diameter)/end diastolic diameter×100)."}, "[2]": {"target": "bovine cardiac myofibrils (full-length cardiac myosin ATPase in the native sarcomere) (Bos taurus (Bovine), UniProt Q9BE39)", "sequence (Q9BE39 whole entry)": "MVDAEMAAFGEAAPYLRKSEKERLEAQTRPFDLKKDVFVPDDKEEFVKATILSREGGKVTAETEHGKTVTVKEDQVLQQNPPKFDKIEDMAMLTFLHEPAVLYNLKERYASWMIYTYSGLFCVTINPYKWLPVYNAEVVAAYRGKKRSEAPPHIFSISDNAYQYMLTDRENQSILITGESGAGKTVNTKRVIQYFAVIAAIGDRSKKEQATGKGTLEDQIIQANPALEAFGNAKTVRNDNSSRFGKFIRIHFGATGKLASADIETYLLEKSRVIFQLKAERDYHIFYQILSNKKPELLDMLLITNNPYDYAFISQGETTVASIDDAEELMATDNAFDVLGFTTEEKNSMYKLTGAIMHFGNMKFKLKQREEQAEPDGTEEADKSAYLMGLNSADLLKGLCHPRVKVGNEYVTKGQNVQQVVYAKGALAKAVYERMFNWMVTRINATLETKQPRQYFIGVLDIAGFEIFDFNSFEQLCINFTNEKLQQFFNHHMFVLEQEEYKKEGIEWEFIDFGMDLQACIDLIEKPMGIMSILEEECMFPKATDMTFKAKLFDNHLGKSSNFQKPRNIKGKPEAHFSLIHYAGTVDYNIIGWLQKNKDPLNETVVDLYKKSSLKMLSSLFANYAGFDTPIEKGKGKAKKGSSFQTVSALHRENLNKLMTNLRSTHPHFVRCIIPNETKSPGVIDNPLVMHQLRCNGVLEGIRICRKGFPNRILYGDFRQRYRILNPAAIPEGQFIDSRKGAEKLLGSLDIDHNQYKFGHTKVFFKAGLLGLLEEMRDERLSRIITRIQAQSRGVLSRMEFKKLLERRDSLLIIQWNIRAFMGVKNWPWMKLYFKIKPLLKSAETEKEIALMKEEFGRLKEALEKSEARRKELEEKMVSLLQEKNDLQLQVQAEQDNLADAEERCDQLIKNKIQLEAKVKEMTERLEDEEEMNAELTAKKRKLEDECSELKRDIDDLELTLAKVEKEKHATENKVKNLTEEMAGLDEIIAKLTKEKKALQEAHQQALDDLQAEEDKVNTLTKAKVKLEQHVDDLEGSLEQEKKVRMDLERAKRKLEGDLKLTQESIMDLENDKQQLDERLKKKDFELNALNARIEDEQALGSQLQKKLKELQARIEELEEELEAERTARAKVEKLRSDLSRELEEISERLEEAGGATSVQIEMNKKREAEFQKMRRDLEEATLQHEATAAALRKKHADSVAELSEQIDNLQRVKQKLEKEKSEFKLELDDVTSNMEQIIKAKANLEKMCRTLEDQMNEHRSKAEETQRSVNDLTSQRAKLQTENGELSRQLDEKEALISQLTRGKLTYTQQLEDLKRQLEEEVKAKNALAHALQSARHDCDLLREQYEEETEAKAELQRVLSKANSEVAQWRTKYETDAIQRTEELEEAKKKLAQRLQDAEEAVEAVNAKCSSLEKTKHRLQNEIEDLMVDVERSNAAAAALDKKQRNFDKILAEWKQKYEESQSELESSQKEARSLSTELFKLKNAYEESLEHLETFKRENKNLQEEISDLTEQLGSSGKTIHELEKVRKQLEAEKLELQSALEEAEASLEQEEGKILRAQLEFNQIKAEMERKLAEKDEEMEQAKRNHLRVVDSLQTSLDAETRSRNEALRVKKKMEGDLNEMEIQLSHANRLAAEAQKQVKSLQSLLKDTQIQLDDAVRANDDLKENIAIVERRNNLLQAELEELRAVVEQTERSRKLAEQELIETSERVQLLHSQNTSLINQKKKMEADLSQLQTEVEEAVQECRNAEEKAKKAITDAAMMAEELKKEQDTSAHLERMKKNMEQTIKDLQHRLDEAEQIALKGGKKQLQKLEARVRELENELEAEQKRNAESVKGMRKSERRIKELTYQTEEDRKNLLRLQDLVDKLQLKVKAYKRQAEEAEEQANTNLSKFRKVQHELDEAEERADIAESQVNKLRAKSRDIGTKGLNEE", "sequence (P85100 whole entry partner)": "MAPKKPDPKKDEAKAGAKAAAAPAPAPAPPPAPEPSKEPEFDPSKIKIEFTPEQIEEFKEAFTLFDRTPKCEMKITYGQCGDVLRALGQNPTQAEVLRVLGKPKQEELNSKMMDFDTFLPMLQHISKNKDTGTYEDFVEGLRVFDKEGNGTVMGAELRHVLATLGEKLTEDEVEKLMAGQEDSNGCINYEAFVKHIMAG", "sequence (Q3SZE5 whole entry partner)": "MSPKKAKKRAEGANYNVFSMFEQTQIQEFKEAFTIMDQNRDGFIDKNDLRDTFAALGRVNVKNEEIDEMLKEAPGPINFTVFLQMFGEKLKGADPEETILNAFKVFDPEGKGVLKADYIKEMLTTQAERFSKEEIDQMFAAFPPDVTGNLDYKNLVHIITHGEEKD", "assay": "Skinned bovine cardiac myofibril ATPase assay (PK/LDH-coupled)", "format": "biochemical", "conditions": "Ca2+ activating to 75% of maximal rate", "outline": "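Inhibition of steady-state ATPase read at 340 nm through a PK/LDH-coupled NADH system (0.5 mM NADH, 1.5 mM PEP). Detergent-skinned bovine cardiac myofibrils, 1 mg/mL, were tested at pH 6.8 in PIPES/MgCl2 with 50 μM ATP and calcium adjusted to give pCa50 or pCa75 activation.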"}}, "data": [{"compound": "CC(C)c1nc(-c2ccc3c(c2)CC[C@H]3NC(=O)c2nnn(C)n2)no1", "note": "[Compound 142, (R)—N-(5-(5-isopropyl-1,2,4-oxadiazol-3-yl)-2,3-dihydro-1H-inden-1-yl)-2-methyl-2H-tetrazole-5-carboxamide]", "values": [{"measurement": "septal and left ventricular posterior wall thickness", "setting": "[1]", "result": "attenuated increases in septal and left ventricular posterior wall thickness"}, {"measurement": "CDMF75 IC15", "setting": "[2]; concentration giving 15% inhibition", "result": 0.5, "unit": "µM"}, {"measurement": "IC50", "setting": "[2]; read-out: CDMF75 IC50", "result": 2.4, "unit": "µM"}]}]}
